In patent US20170158636A1, “FUNCTIONALISED AND SUBSTITUTED CARBAZOLES AS ANTI-CANCER AGENTS” (Novogen Ltd., priority 2014, published 2017):

What was measured:
Assay type in all cases: cell-based
SK-Mel-28 melanoma cells = assay: Anti-proliferative activity, cell-titre luminescent viability assay; conditions: Homo sapiens, 72 hours exposure
Outline: (§1)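 Seeded cell lines attached 24 h (37° C, 5% CO2), then received compound for 72 h before a 30 min luminescent viability read versus untreated control. Four-point series (0.03–30 μM) gave IC50 by linear regression of semi-log percent-of-control plots; six-point series (0.1–30 μM) gave vehicle-normalized EC50 from variable-slope sigmoidal fits.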

[1] = system: MDA-MB-231 breast cancer cells; assay: as above; conditions: Homo sapiens, 72 hours exposure
Outline: as §1

[2] = system: DU145 prostate cancer cells; assay: as above; conditions: Homo sapiens, DU-145, 72 hours exposure
Outline: as §1

[3] = system: PC3 prostate cancer cells; assay: as above; conditions: 72 hours exposure
Outline: as §1

[4] = system: A549 lung (NSLC) cancer cells; assay: as above; conditions: Homo sapiens, 72 hours exposure
Outline: as §1

[5] = system: CaCo2 colorectal cancer cells; assay: as above; conditions: Homo sapiens, Caco-2, 72 hours exposure
Outline: as §1

[6] = system: SK-N-SH neuroblastoma cells; assay: as above; conditions: Homo sapiens, 72 hours exposure
Outline: as §1

[7] = system: Tpm3.1-containing actin filaments in SK-N-SH neuroblastoma cells; assay: Disruption of Tpm3.1-containing actin filaments (γ9d staining); conditions: SK-N-SH cells, 0, 5 and 7.5 μM, 48 hours post treatment
Procedure: FIG. 2: Imaging and quantitation of Tpm3.1-containing actin filaments in SK-N-SH neuroblastoma cells treated with compound (A) 1007, (B) 1013 and (C) 1016. Cells were stained with γ9d (sheep polycolonal, 1:100) followed by 488-conjugated secondary (1:1000) and DAPI to visualize the Tpm3.1 containing filament bundles and the nucleus, respectively. Shown in the top panel is a representative gray scale immunofluorescent image from control (vehicle alone), 5 μM and 7.5 μM treated cells. […] The coloured lines indicate the detected Tpm3.1 containing actin filaments. Also shown is the quantitation of cell number, Tpm3.1 filament number/cell and Tpm3.1 filament number/cell area (μM^2). Statistical analysis was performed using a one way ANNOVA-multiple comparison where each drug treated group was compared to the control. ****p<0.0001.
Another assay was conducted to assess the ability of compounds 1007, 1013 and 1016 to specifically disrupt actin filaments containing Tpm3.1 (FIG. 2). Briefly, SK-N-SH neuroblastoma cells were seeded at 2×10^4 cells/mL in a 10 cm tissue culture plate and left to plate down 24 hours prior to treatment. Cells were then treated with 0, 5 and 7.5 μM of the test compounds. 48 hours post treatment, cells were fixed with 4% w/v paraformaldehyde (PBS), permeabilized with Triton-X-100 and stained with γ9d (sheep polycolonal, 1:100) followed by 488-conjugated secondary (1:1000) and DAPI to visualize the Tpm3.1 containing filament bundles and the nucleus, respectively. Single plane images were obtained on the Zeiss epifluorescent Axioscope microscope using a 20× objective. Six fields of view per condition were imaged. Images were then exported and the linear features (actin filaments containing Tpm3.1) were then quantitated using the linear feature detection algorithm described above.

IL-17A = assay: Cytokine release from PMA/ionomycin-stimulated PBMCs (HTRF); conditions: PBMC, human PBMCs, PMA and ionomycin
Procedure: (§2) The ability of compounds 1004, 1007 and 1018 to inhibit the release of cytokines TNF-α, IFN-γ, IL-6, IL-21, IL-17A and IL-23 was evaluated in vitro (Tables 2 and 3). Briefly, human peripheral blood mononuclear cells (PBMCs) were isolated from human peripheral blood by Histopaque density gradient centrifugation. The freshly isolated PBMCs were seeded at 50,000 cells/well in a 96-well half area plate. PBMCs were dosed with the test compounds (at 10 μM, 1 μM and 0.1 μM) and then incubated at 37° C. and 5% CO2 for 2 hours. To stimulate release of the cytokines IFN-γ, IL-21, IL-17A and IL-23, the PBMCs were treated with 50 ng/mL of phorbol 12-myristate 13-acetate (PMA) and 1 μg/mL of ionomycin and to stimulate the release of TNF-α and IL-6, PBMCs were treated with 100 ng/mL of lipopolysaccharide (LPS) from gram-negative bacteria. The PBMCs were then incubated at 37° C. and 5% CO2 for a further 6 hours and the cell supernatant was collected and a Homogenous Time Resolved Fluorescence (HTRF) assay was carried out following the manufacturer's instructions. Cytokine release from the PBMCs was captured using a Perkin Elmer ENVISION 2104 microplate reader set at 615 nm and 665 nm respectively.

IL-23 = assay: as above; conditions: PBMC, human PBMCs, PMA and ionomycin
Procedure: as §2

IL-21 = assay: as above; conditions: PBMC, human PBMCs, PMA and ionomycin
Procedure: as §2

IFN-γ = assay: as above; conditions: PBMC, human PBMCs, PMA and ionomycin
Procedure: as §2

IL-6 = assay: Cytokine release from LPS-stimulated PBMCs (HTRF); conditions: PBMC, human PBMCs
Procedure: as §2

TNF-α = assay: Cytokine release from LPS-stimulated PBMCs (HTRF); conditions: PBMC, human PBMCs
Procedure: as §2

In the case of `CCN(CC)CCCn1c2ccccc2c2cc(C(=O)N3CCN(CCc4ccc(F)cc4)CC3)ccc21` [Compound 1007, (9-(3-(diethylamino)propyl)-9H-carbazol-3-yl)(4-(4-fluorophenethyl)piperazin-1-yl)methanone], the IC50 (SK-Mel-28 melanoma cells) is reported as 1200 nM, the IC50 [1] is reported as 2400 nM and the IC50 [2] is reported as 3000 nM. It also gave an IC50 [3] of 3200 nM, an IC50 [4] of 1900 nM and an IC50 [5] of 2800 nM. For the same compound, the IC50 [6] was 1600 nM, the “disruption of Tpm3.1-containing actin filaments” value [7] was “disrupt Tpm3.1-containing actin filaments in a dose-dependent manner” and the inhibition at 0.1 µM (IL-17A; 0.1 μM) was -4%. For the same compound, the inhibition at 1 µM (IL-17A; 1 μM) was 22%, the inhibition at 10 µM (IL-17A; 10 μM) was 59% and the inhibition at 0.1 µM (IL-23; 0.1 μM) was -15%. It also gave an inhibition at 1 µM (IL-23; 1 μM) of -11%, an inhibition at 10 µM (IL-23; 10 μM) of -3% and an inhibition at 0.1 µM (IL-21; 0.1 μM) of -7%. The inhibition at 1 µM (IL-21; 1 μM) was -9%, the inhibition at 10 µM (IL-21; 10 μM) was -4% and the inhibition at 0.1 µM (IFN-γ; 0.1 μM) was 8%. For the same compound, the inhibition at 1 µM (IFN-γ; 1 μM) was 53%, the inhibition at 10 µM (IFN-γ; 10 μM) was 90% and the inhibition at 0.1 µM (IL-6; 0.1 μM) was 38%. The inhibition at 1 µM (IL-6; 1 μM) was 59%, the inhibition at 10 µM (IL-6; 10 μM) was 89% and the inhibition at 0.1 µM (TNF-α; 0.1 μM) was 43%. For the same compound, the inhibition at 1 µM (TNF-α; 1 μM) was 60% and the inhibition at 10 µM (TNF-α; 10 μM) was 82%.
